{
  "source": "patent US9714936B2",
  "about": "“Method for evaluating cosmetic” (SHISEIDO COMPANY, LTD., priority 2011, dated 2017)",
  "key": {"[1]": {"test_system": "J-TEC Human Reconstituted Epidermis Model (stratum corneum sheet)", "assay": "Change in stratum corneum sheet thickness on wetting and drying (Example 6)", "procedure": "(§1) The thickness of a J-TEC Human Reconstituted Epidermis Model (stratum corneum sheet) before the experiment was measured with a caliper (Caliper No. 227-201 by Mitsutoyo Corp.) (one location each) (A). The stratum corneum sheet was further wetted for 30 minutes in a 10% glycerin aqueous solution, an aqueous solution of liquid paraffin (10%), glycerin (10%), POE(60) hydrogenated castor oil (10%), carboxyvinyl polymer (product name: CARBOPOL 981, Lubrizol Advanced Materials, Inc.) (0.2%) and KOH (0.1%) (liquid paraffin+glycerin+thickener aqueous solution), and in 100% ethanol, and immediately upon completion of wetting, the thickness of the stratum corneum sheet was measured with a caliper in the same manner (B).\n(§2) It was further dried for 18 hours under conditions of 34° C., 60% humidity and the stratum corneum sheet was measured (C). Using theses results, the thickness change rate (%) of the stratum corneum sheet was measured based on the following formula 1: Thickness change rate (%)=(B−A)×100/A−(C−B)×100/C"}, "[2]": {"test_system": "J-TEC Human Reconstituted Epidermis Model (stratum corneum sheet)", "assay": "Visual examination of stratum corneum sheet transparency after wetting and drying (Example 6)", "conditions": "visually examined after wetting 30 minutes and drying 18 hours at 34° C., 60% humidity", "procedure": "as §1, §2"}, "[3]": {"test_system": "freeze-dried J-TEC Human Reconstituted Epidermis model (stratum corneum sheet)", "assay": "Transparency and transmittance of freeze-dried stratum corneum sheet after wetting and drying (FIG. 7)", "conditions": "wetted 30 minutes, dried 18 hours at 34° C., 60% humidity", "procedure": "The freeze-dried stratum corneum sheet was wetted for 30 minutes in a 10% glycerin aqueous solution, in an aqueous solution of liquid paraffin (10%), glycerin (10%), POE(60) hydrogenated castor oil (10%), carboxyvinyl polymer (product name: CARBOPOL 981 by Lubrizol Advanced Materials, Inc.) (0.2%) and KOH (0.1%) (liquid paraffin+glycerin+thickener aqueous solution), and in 100% ethanol, and after removing the liquid, drying was performed for 18 hours in an atmosphere at 34° C., 60% humidity, and the sheet was photographed (FIG. 7). […] Since higher transparency of the stratum corneum can be considered a more excellent skin condition, the state of improvement in skin can be evaluated based on the thickness change in the stratum corneum cells or cell layer from moistening in a liquid until drying."}},
  "data": [
    {"smiles": "CCO", "note": "[100% Ethanol, ethanol]", "values": [
      {"measurement": "Thickness change rate (%)", "setting": "[1]; (B−A)×100/A−(C−B)×100/C, wetted 30 minutes, dried 18 hours at 34° C., 60% humidity, caliper", "value": 3.9, "unit": "%"},
      {"measurement": "change in thickness of stratum corneum sheet when moistened (FIG. 6)", "setting": "[1]; after wetting with the liquid", "value": "no change in thickness"},
      {"measurement": "Transparency", "setting": "[2]", "value": "Poor"},
      {"measurement": "transparency of freeze-dried stratum corneum sheet moistened and then dried (FIG. 7)", "setting": "[3]", "value": "low"},
      {"measurement": "stratum corneum transmittance of freeze-dried sheet moistened and then dried (FIG. 7)", "setting": "[3]; HR100 spectrophotometer", "value": "low"}
    ]}
  ]
}
